Results from publication PMC10688820 (Microbiome Research Reports, 2023).
Read-outs that look alike come from different tables or passages of the source. Values belong to the compound of their own block, whether it stands above or below them.

Legend:
BiBga42A [1] = molecular target: T1, BiBga42A (Bifidobacterium longum, UniProt Z9E2X9H8H4, A160E/A318E, form not given); experiment: coupled colorimetric Gal release assay (Thio-NADH, […] nm); type: biochemical; settings: 100 mM citrate-phosphate pH 6.5, 37 °C, 12.5 mM MgCl2 (coupling mix)
T1 construct: C-terminal hexahistidine tag, pET23b, expressed in E. coli BL21 (DE3) ΔlacZ; GH42; homotrimer, active site completed by W200 and F221 of neighbouring subunit

BiBga42A [2] = molecular target: T2, BiBga42A (Bifidobacterium longum, UniProt Z9E2X9H8H4, R121A/A160E/A318E, form not given); experiment: as above; type: biochemical; settings: 100 mM citrate-phosphate pH 6.5, 37 °C, 12.5 mM MgCl2 (coupling mix)
T2 construct: C-terminal hexahistidine tag, pET23b, expressed in E. coli BL21 (DE3) ΔlacZ; GH42; homotrimer, active site completed by W200 and F221 of neighbouring subunit

BiBga42A [3] = molecular target: T3, BiBga42A (Bifidobacterium longum, UniProt Z9E2X9H8H4, A160E/M262G/A318E, form not given); experiment: as above; type: biochemical; settings: 100 mM citrate-phosphate pH 6.5, 37 °C, 12.5 mM MgCl2 (coupling mix); read-out: LNT
T3 construct: C-terminal hexahistidine tag, pET23b, expressed in E. coli BL21 (DE3) ΔlacZ; GH42; homotrimer, active site completed by W200 and F221 of neighbouring subunit

BiBga42A [4] = molecular target: T4, BiBga42A (Bifidobacterium longum, UniProt Z9E2X9H8H4, A160E/A318E/W326A, form not given); experiment: as above; type: biochemical; settings: 100 mM citrate-phosphate pH 6.5, 37 °C, 12.5 mM MgCl2 (coupling mix)
T4 construct: C-terminal hexahistidine tag, pET23b, expressed in E. coli BL21 (DE3) ΔlacZ; GH42; homotrimer, active site completed by W200 and F221 of neighbouring subunit

BiBga42A [5] = molecular target: T5, BiBga42A (Bifidobacterium longum, UniProt Z9E2X9H8H4, A160E/F221A/A318E, form not given); experiment: as above; type: biochemical; settings: 100 mM citrate-phosphate pH 6.5, 37 °C, 12.5 mM MgCl2 (coupling mix); read-out: LNT
T5 construct: C-terminal hexahistidine tag, pET23b, expressed in E. coli BL21 (DE3) ΔlacZ; GH42; homotrimer, active site completed by W200 and F221 of neighbouring subunit

BiBga42A [6] = molecular target: T6, BiBga42A (Bifidobacterium longum, UniProt Z9E2X9H8H4, A160E/A318E/R327A, form not given); experiment: as above; type: biochemical; settings: 100 mM citrate-phosphate pH 6.5, 37 °C, 12.5 mM MgCl2 (coupling mix); read-out: LNT
T6 construct: C-terminal hexahistidine tag, pET23b, expressed in E. coli BL21 (DE3) ΔlacZ; GH42; homotrimer, active site completed by W200 and F221 of neighbouring subunit

BiBga42A [7] = molecular target: T7, BiBga42A (Bifidobacterium longum, UniProt Z9E2X9H8H4, A160E/A318S, form not given); experiment: X-ray co-crystal structure, […] Å; type: binding; settings: co-crystallised with 100 mM LNT, pH 5.8; subsites -1 to +3
T7 construct: C-terminal hexahistidine tag, pET23b, expressed in E. coli BL21 (DE3) ΔlacZ; GH42; homotrimer, active site completed by W200 and F221 of neighbouring subunit

BiBga42A [8] = molecular target: T8, BiBga42A (Bifidobacterium longum, UniProt Z9E2X9H8H4, A160E/Y287F/A318E, form not given); experiment: coupled colorimetric Gal release assay (Thio-NADH, […] nm); type: biochemical; settings: 100 mM citrate-phosphate pH 6.5, 37 °C, 12.5 mM MgCl2 (coupling mix); read-out: LNT
T8 construct: C-terminal hexahistidine tag, pET23b, expressed in E. coli BL21 (DE3) ΔlacZ; GH42; homotrimer, active site completed by W200 and F221 of neighbouring subunit

BiBga42A [9] = molecular target: T9, BiBga42A (Bifidobacterium longum, UniProt Z9E2X9H8H4, A160E, form not given); experiment: as above; type: biochemical; settings: 100 mM citrate-phosphate pH 6.5, 37 °C, 12.5 mM MgCl2 (coupling mix); read-out: pNP-Gal
T9 construct: C-terminal hexahistidine tag, pET23b, expressed in E. coli BL21 (DE3) ΔlacZ; GH42; homotrimer, active site completed by W200 and F221 of neighbouring subunit

BiBga42A [10] = molecular target: T10, BiBga42A (Bifidobacterium longum, UniProt Z9E2X9H8H4, A318E, form not given); experiment: as above; type: biochemical; settings: 100 mM citrate-phosphate pH 6.5, 37 °C, 12.5 mM MgCl2 (coupling mix); read-out: pNP-Gal
T10 construct: C-terminal hexahistidine tag, pET23b, expressed in E. coli BL21 (DE3) ΔlacZ; GH42; homotrimer, active site completed by W200 and F221 of neighbouring subunit

[11] = molecular target: BiBga42A E160A/E318A double mutant (Bifidobacterium longum subsp. infantis ATCC 15697); experiment: crystal structure; hanging drop vapor diffusion, 20 °C, 20 mg/mL protein; trimer seen by a crystallographic 3-fold axis (WT-GOL, E318S-LNT) or within the asymmetric unit (E160A/E318A-Gal)
[12] = molecular target: BiBga42A E318S mutant (Bifidobacterium longum subsp. infantis ATCC 15697); experiment: as above
[13] = molecular target: BiBga42A wild-type (WT) enzyme, glycoside hydrolase family 42 β-galactosidase from Bifidobacterium longum subsp. infantis ATCC 15697 (Bifidobacterium longum subsp. infantis ATCC 15697); experiment: as above

Km (BiBga42A [1]; read-out: LNB): 25 mM
Compound: CC(=O)N[C@H]1C(O)O[C@H](CO)[C@@H](O)[C@@H]1O[C@@H]1O[C@H](CO)[C@H](O)[C@H](O)[C@H]1O (some centres unmarked) [LNB]

Km (BiBga42A [2]; read-out: LNT): 16 mM
Km (BiBga42A [3]): 3 mM
Km (BiBga42A [4]; read-out: LNT): 7.7 mM
Km (BiBga42A [5]): 8.4 mM
Km (BiBga42A [6]): 11 mM
Km (BiBga42A [1]; read-out: LNT): 2.7 mM
Km (BiBga42A [8]): 2.6 mM
Compound: CC(=O)N[C@H]1[C@H](O[C@H]2[C@@H](O)[C@@H](CO)O[C@@H](O[C@H]3[C@H](O)[C@@H](O)C(O)O[C@@H]3CO)[C@@H]2O)O[C@H](CO)[C@@H](O)[C@@H]1O[C@@H]1O[C@H](CO)[C@H](O)[C@H](O)[C@H]1O (some centres unmarked) [LNT]
X-ray co-crystal structure, 2.2 Å (BiBga42A [7]): An LNT-complexed crystal was indeed obtained for the mutant

Km (BiBga42A [9]): 1.4 mM
Km (BiBga42A [2]; read-out: pNP-Gal): 1.4 mM
Km (BiBga42A [4]; read-out: pNP-Gal): 12 mM
Km (BiBga42A [10]): 0.94 mM
Km (BiBga42A [1]; read-out: pNP-Gal): 0.57 mM
Compound: O=[N+]([O-])c1ccc(O[C@@H]2O[C@H](CO)[C@H](O)[C@H](O)[C@H]2O)cc1 [pNP-Gal]

stoichiometry N [11]: 3
Compound: BiBga42A E160A/E318A double mutant (enzyme)

stoichiometry N [12]: 3
Compound: BiBga42A E318S mutant (enzyme)

stoichiometry N [13]: 3
Compound: BiBga42A wild-type (WT) enzyme, glycoside hydrolase family 42 β-galactosidase from Bifidobacterium longum subsp. infantis ATCC 15697
